# Experimental data from US20250304620A1, “ANTIMICROBIAL PEPTIDE AND APPLICATION THEREOF” (priority 2023, published 2025).
# Marks after values point to notes of the source that are not given here. Non-standard residues stand in square brackets, D forms with d. Residues, ends and D or L forms follow the SMILES beside them. d2Nal = N[C@H](Cc1ccc2ccccc2c1)C(=O)O; d(hLeu) = CC(C)CC[C@@H](N)C(=O)O; dNva = CCC[C@@H](N)C(=O)O
# What was measured:
# [1] = test system: Escherichia coli ATCC 25922; assay: Oral formulations on mice with systemic bacterial infection; format: in vivo, ICR mice; conditions: three times a day for 7 days; for Number of mice that died on each day after infection: day 4 / Number of mice that died on each day after infection: day 5 / Number of mice that died on each day after infection: day 6 / Number of mice that died on each day after infection: day 7 / Number of mice that died on each day after infection: day 8 / Average survival times (Days): n = 10; for Average survival times (Days): observed for 14 d
# How it was run: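 ICR mice of both sexes, 10 per group, infected i.p. with 0.2 mL E. coli ATCC 25922 at 1×10^7 CFU/mL. Compounds gavaged by body weight immediately after infection, three times daily for 7 days; deaths and survival time recorded over 14 d observation.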
# [2] = test system: Staphylococcus aureus (NRS 384); assay: microbe, parasite or virus in culture; format: cell-based; conditions: NRS 384
# How it was run: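 CLSI broth microdilution with serial twofold dilutions gave MICs against S. aureus NRS 384, with 5 parallel replicates. Levofloxacin and the AMP Cbf-K16 served as positive controls.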
# [3] = Serum stability assay (residual level by RP-HPLC); conditions: human
# [4] = test system: Staphylococcus aureus (NRS 384); conditions: NRS 384, 3 h
# Method: Trypsin (250 U/mg, pH=8.0) and AMPs (LV-1 to LV-30) were mixed in a ratio of 1:10 (w/w) and added to a reaction buffer (0.2 M sodium phosphate, 1 mM CaCl2), pH 7.5), and then incubated at 37° C. for 3 h.
# [5] = test system: Salmonella typhimurium ATCC 14028; format: cell-based
# How it was run: (§1)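 CLSI microdilution, serial 2-fold dilutions; MIC read-out; n = 5 parallel repeats.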
# [6] = test system: Trichophyton ATCC MYA-4438; format: cell-based
# How it was run: as §1
# Candida krusei ATCC 6258 = format: cell-based
# How it was run: as §1
# [7] = test system: Candida albicans ATCC MYA-2876; format: cell-based
# How it was run: as §1
# [8] = test system: Staphylococcus aureus ATCC 25923; format: cell-based
# How it was run: as §1
# [9] = test system: Klebsiella pneumoniae ATCC 700603; format: cell-based
# How it was run: as §1
# [10] = test system: Bacillus subtilis ATCC 6633; format: cell-based
# How it was run: as §1
# [11] = test system: Serratia marcescens ATCC 29021; format: cell-based
# How it was run: as §1
# [12] = test system: Candida glabrata ATCC 15126; format: cell-based
# How it was run: as §1
# Candida utilis ATCC 9950 = format: cell-based
# How it was run: as §1
# [13] = test system: Candida tropicalis ATCC 750; format: cell-based
# How it was run: as §1
# [14] = test system: Escherichia coli ATCC 25922; format: cell-based
# How it was run: as §1
# Enterococcus ATCC 29212 = format: cell-based
# How it was run: as §1
# [15] = test system: Corynebacterium ATCC 7715; format: cell-based
# How it was run: as §1
# [16] = test system: Pseudomonas aeruginosa ATCC 27853; format: cell-based
# How it was run: as §1
# [17] = test system: Shigella flexneri ATCC 12022; assay: MIC against clinically common bacterial strain; format: cell-based
# How it was run: as §1
Structure (SMILES),Number of mice that died on each day after infection: day 4 ([1]; 1 mg/kg gavage),Number of mice that died on each day after infection: day 5 ([1]; 1 mg/kg gavage),Number of mice that died on each day after infection: day 6 ([1]; 1 mg/kg gavage),Number of mice that died on each day after infection: day 7 ([1]; 1 mg/kg gavage),Number of mice that died on each day after infection: day 8 ([1]; 1 mg/kg gavage),Average survival times (Days) ([1]; 1 mg/kg gavage),MIC against Staphylococcus aureus (NRS 384) [2],"remaining at 12 h, 0.91 mg/mL [3]",Trypsin MIC [4],MIC Salmonella typhimurium ATCC 14028 [5],MIC Trichophyton ATCC MYA-4438 [6],MIC Candida krusei ATCC 6258 (Candida krusei ATCC 6258),MIC Candida albicans ATCC MYA-2876 [7],MIC Staphylococcus aureus ATCC 25923 [8],MIC Klebsiella pneumoniae ATCC 700603 [9],MIC Bacillus subtilis ATCC 6633 [10],MIC Serratia marcescens ATCC 29021 [11],MIC Candida glabrata ATCC 15126 [12],MIC Candida utilis ATCC 9950 (Candida utilis ATCC 9950),MIC Candida tropicalis ATCC 750 [13],further results
CC(=O)N[C@H](CCCNC(=N)N)C(=O)N[C@H](CCCCN)C(=O)N[C@H](CCC(C)C)C(=O)N[C@H](CCC(C)C)C(=O)N[C@H](Cc1ccc2ccccc2c1)C(=O)N[C@H](CCCNC(=N)N)C(=O)N[C@H](CCC(C)C)C(=O)N[C@H](CCCCN)C(=O)N[C@H](Cc1ccc2ccccc2c1)C(=O)N[C@H](CCCNC(=N)N)C(=O)N[C@H](CCCCN)C(N)=O [LV-14] (Ac-[dR][dK][d(hLeu)][d(hLeu)][d2Nal][dR][d(hLeu)][dK][d2Nal][dR][dK]-NH2),1 Mouse,2 Mouse,1 Mouse,0 Mouse,1 Mouse,9.8** Days,1 µg/mL,97.1%,1 µg/mL,4 µg/mL,8 µg/mL,16 µg/mL,16 µg/mL,2 µg/mL,4 µg/mL,2 µg/mL,8 µg/mL,4 µg/mL,4 µg/mL,8 µg/mL,MIC Escherichia coli ATCC 25922 [14]: 2 µg/mL; MIC Enterococcus ATCC 29212 (Enterococcus ATCC 29212): 4 µg/mL; MIC Corynebacterium ATCC 7715 [15]: 8 µg/mL; MIC Pseudomonas aeruginosa ATCC 27853 [16]: 4 µg/mL; MIC Shigella flexneri ATCC 12022 [17]: 4 µg/mL
CC(=O)N[C@H](CCCCN)C(=O)N[C@H](CCCCN)C(=O)N[C@H](CC(C)C)C(=O)N[C@H](CC(C)C)C(=O)N[C@H](Cc1ccc2ccccc2c1)C(=O)N[C@H](CCCCN)C(=O)N[C@H](CC(C)C)C(=O)N[C@H](CCCCN)C(=O)N[C@H](Cc1ccc2ccccc2c1)C(=O)N[C@H](CCCCN)C(=O)N[C@H](CCCCN)C(N)=O [LV-17] (Ac-[dK][dK][dL][dL][d2Nal][dK][dL][dK][d2Nal][dK][dK]-NH2),1 Mouse,0 Mouse,2 Mouse,1 Mouse,0 Mouse,10.7*** Days,1 µg/mL,97.2%,1 µg/mL,4 µg/mL,8 µg/mL,8 µg/mL,8 µg/mL,1 µg/mL,4 µg/mL,4 µg/mL,2 µg/mL,8 µg/mL,16 µg/mL,8 µg/mL,"Number of mice that died on each day after infection: day 4 ([1]; 0.2 mg/kg gavage): 1 Mouse; Number of mice that died on each day after infection: day 5 ([1]; 0.2 mg/kg gavage): 2 Mouse; Number of mice that died on each day after infection: day 6 ([1]; 0.2 mg/kg gavage): 1 Mouse; Number of mice that died on each day after infection: day 7 ([1]; 0.2 mg/kg gavage): 1 Mouse; Number of mice that died on each day after infection: day 8 ([1]; 0.2 mg/kg gavage): 2 Mouse; Average survival times (Days) ([1]; 0.2 mg/kg gavage): 8.5** Days; Number of mice that died on each day after infection: day 4 ([1]; 5 mg/kg gavage): 2 Mouse; Number of mice that died on each day after infection: day 5 ([1]; 5 mg/kg gavage): 1 Mouse; Number of mice that died on each day after infection: day 6 ([1]; 5 mg/kg gavage): 0 Mouse; Number of mice that died on each day after infection: day 7 ([1]; 5 mg/kg gavage): 1 Mouse; Number of mice that died on each day after infection: day 8 ([1]; 5 mg/kg gavage): 1 Mouse; Average survival times (Days) ([1]; 5 mg/kg gavage): 9.8** Days; survival time of mice infected with Escherichia coli ([1]; gavage, observed 14 d): superior to those of the Levofloxacin group; MIC Escherichia coli ATCC 25922 [14]: 1 µg/mL; MIC Enterococcus ATCC 29212 (Enterococcus ATCC 29212): 2 µg/mL; MIC Corynebacterium ATCC 7715 [15]: 2 µg/mL; MIC Pseudomonas aeruginosa ATCC 27853 [16]: 1 µg/mL; MIC Shigella flexneri ATCC 12022 [17]: 4 µg/mL"
CCC[C@@H](NC(=O)[C@@H](CCCCN)NC(=O)[C@@H](CCCNC(=N)N)NC(C)=O)C(=O)N[C@H](CCC)C(=O)N[C@H](Cc1ccc2ccccc2c1)C(=O)N[C@H](CCCNC(=N)N)C(=O)N[C@H](CCC)C(=O)N[C@H](CCCCN)C(=O)N[C@H](Cc1ccc2ccccc2c1)C(=O)N[C@H](CCCNC(=N)N)C(=O)N[C@H](CCCCN)C(N)=O [LV-13] (Ac-[dR][dK][dNva][dNva][d2Nal][dR][dNva][dK][d2Nal][dR][dK]-NH2),3 Mouse,1 Mouse,1 Mouse,0 Mouse,0 Mouse,9.3** Days,1 µg/mL,98.5%,1 µg/mL,2 µg/mL,4 µg/mL,4 µg/mL,16 µg/mL,2 µg/mL,4 µg/mL,4 µg/mL,4 µg/mL,8 µg/mL,8 µg/mL,4 µg/mL,MIC Escherichia coli ATCC 25922 [14]: 2 µg/mL; MIC Enterococcus ATCC 29212 (Enterococcus ATCC 29212): 8 µg/mL; MIC Corynebacterium ATCC 7715 [15]: 4 µg/mL; MIC Pseudomonas aeruginosa ATCC 27853 [16]: 4 µg/mL; MIC Shigella flexneri ATCC 12022 [17]: 8 µg/mL
